# ChEMBL document CHEMBL2177009, “The use of novel C-methylated spermidine derivatives to investigate the regulation of polyamine metabolism” (J Med Chem, 2011)
# The source made the active and inactive calls. No cut-off for these calls is given here.
# Columns and labels:
# Nucleic Acid = test: Induction of SSAT alternative splicing in mouse primary fetal fibroblasts assessed as SSAT-X mRNA at 100 uM by qRT-PCR in presence of CHX relative to total SSAT mRNA
# DU-145 = test: Displacement of [14C]-spermidine from polyamine transporter in human DU145 cells at 1 to 100 uM after 10 mins; type: cell-based
# [1] = biological target: T1, Ornithine decarboxylase (Homo sapiens) (UniProt P11926); test: Activity of ornithine decarboxylase in human DU145 cells assessed per ug DNA at 100 uM after 24 hrs in presence of serum amine oxidase inhibitor aminoguanidine (RVb = 29.3 +/- 1.4 pmol/h per ug DNA); type: cell-based; conditions: DU-145
# T1 sequence (whole entry): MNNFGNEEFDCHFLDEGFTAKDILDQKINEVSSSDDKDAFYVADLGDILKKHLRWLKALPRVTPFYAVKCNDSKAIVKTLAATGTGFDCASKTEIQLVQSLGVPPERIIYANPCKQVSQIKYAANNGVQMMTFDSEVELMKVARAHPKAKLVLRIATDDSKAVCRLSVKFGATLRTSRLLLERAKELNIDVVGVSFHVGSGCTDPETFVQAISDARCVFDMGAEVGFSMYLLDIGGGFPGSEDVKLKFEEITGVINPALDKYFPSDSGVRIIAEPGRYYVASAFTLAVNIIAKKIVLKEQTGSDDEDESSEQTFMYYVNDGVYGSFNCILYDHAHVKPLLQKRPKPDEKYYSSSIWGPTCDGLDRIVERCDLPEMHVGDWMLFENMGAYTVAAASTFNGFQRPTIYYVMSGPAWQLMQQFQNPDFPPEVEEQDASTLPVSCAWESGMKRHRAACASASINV
# [2] = biological target: T1, Ornithine decarboxylase (Homo sapiens); test: Activity of ornithine decarboxylase in human DU145 cells assessed per ug DNA at 100 uM after 72 hrs in presence of serum amine oxidase inhibitor aminoguanidine (RVb = 7.5+/- 0.9 pmol/h per ug DNA); type: cell-based; conditions: DU-145
# [3] = biological target: T2, S-adenosylmethionine decarboxylase proenzyme (Homo sapiens) (UniProt P17707); test: Activity of S-adenosyl-L-methionine decarboxylase in human DU145 cells assessed per ug DNA at 100 uM after 48 hrs in presence of serum amine oxidase inhibitor aminoguanidine (RVb = 73 +/- 1 pmol/h per ug DNA); type: cell-based; conditions: DU-145
# T2 sequence (whole entry): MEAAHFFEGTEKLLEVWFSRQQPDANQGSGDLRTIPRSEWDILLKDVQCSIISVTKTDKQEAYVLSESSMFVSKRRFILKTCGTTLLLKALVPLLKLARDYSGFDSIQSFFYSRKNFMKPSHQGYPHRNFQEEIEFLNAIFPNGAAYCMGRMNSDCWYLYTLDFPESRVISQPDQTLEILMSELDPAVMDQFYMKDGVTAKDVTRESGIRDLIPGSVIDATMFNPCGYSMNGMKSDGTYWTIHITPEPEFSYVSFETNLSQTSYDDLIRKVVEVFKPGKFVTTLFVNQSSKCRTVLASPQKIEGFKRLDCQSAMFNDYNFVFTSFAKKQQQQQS
# [4] = biological target: Diamine acetyltransferase 1 (Homo sapiens) (UniProt P21673); test: Activity of SSAT in human DU145 cells assessed per ug DNA at 100 uM after 48 hrs in presence of serum amine oxidase inhibitor aminoguanidine (RVb = 58 pmol/h per ug DNA); type: cell-based; conditions: DU-145
# [5] = biological target: T2, S-adenosylmethionine decarboxylase proenzyme (Homo sapiens); test: Activity of S-adenosyl-L-methionine decarboxylase in human DU145 cells assessed per ug DNA at 100 uM after 72 hrs in presence of serum amine oxidase inhibitor aminoguanidine (RVb = 72 +/- 6 pmol/h per ug DNA); type: cell-based; conditions: DU-145
# [6] = biological target: Diamine acetyltransferase 1 (Homo sapiens) (UniProt P21673); test: Activity of SSAT in human DU145 cells assessed per ug DNA at 100 uM after 72 hrs in presence of serum amine oxidase inhibitor aminoguanidine (RVb = 62 +/- 4 pmol/h per ug DNA); type: cell-based; conditions: DU-145
# [7] = biological target: Peroxisomal N(1)-acetyl-spermine/spermidine oxidase (Homo sapiens) (UniProt Q6QHF9); test: Activity of APAO in human DU145 cells assessed per ug DNA at 100 uM after 24 hrs in presence of serum amine oxidase inhibitor aminoguanidine (RVb = 540 +/- 61 pmol/h per ug DNA); type: cell-based; conditions: DU-145
# [8] = biological target: Spermine oxidase (Homo sapiens) (UniProt Q9NWM0); test: Activity of spermine oxidase in human DU145 cells assessed per ug DNA at 100 uM after 72 hrs in presence of serum amine oxidase inhibitor aminoguanidine (RVb = 742 +/- 10 pmol/h per ug DNA); type: cell-based; conditions: DU-145
# [9] = biological target: Peroxisomal N(1)-acetyl-spermine/spermidine oxidase (Homo sapiens) (UniProt Q6QHF9); test: Activity of APAO in human DU145 cells assessed per ug DNA at 100 uM after 48 hrs in presence of serum amine oxidase inhibitor aminoguanidine (RVb = 699 +/- 21 pmol/h per ug DNA); type: cell-based; conditions: DU-145
# [10] = biological target: Diamine acetyltransferase 1 (Homo sapiens) (UniProt P21673); test: Activity of SSAT in human DU145 cells assessed per ug DNA at 100 uM after 24 hrs in presence of serum amine oxidase inhibitor aminoguanidine (RVb = 59 +/- 1 pmol/h per ug DNA); type: cell-based; conditions: DU-145
# [11] = biological target: T1, Ornithine decarboxylase (Homo sapiens); test: Activity of ornithine decarboxylase in human DU145 cells assessed per ug DNA at 100 uM after 48 hrs in presence of serum amine oxidase inhibitor aminoguanidine (RVb = 17.7+/- 2.6 pmol/h per ug DNA); type: cell-based; conditions: DU-145
# [12] = biological target: Spermine oxidase (Homo sapiens) (UniProt Q9NWM0); test: Activity of spermine oxidase in human DU145 cells assessed per ug DNA at 100 uM after 48 hrs in presence of serum amine oxidase inhibitor aminoguanidine (RVb = 680 +/- 29 pmol/h per ug DNA); type: cell-based; conditions: DU-145
# [13] = biological target: Spermine oxidase (Homo sapiens) (UniProt Q9NWM0); test: Activity of spermine oxidase in human DU145 cells assessed per ug DNA at 100 uM after 24 hrs in presence of serum amine oxidase inhibitor aminoguanidine (RVb = 493 +/- 22 pmol/h per ug DNA); type: cell-based; conditions: DU-145
# [14] = biological target: Peroxisomal N(1)-acetyl-spermine/spermidine oxidase (Homo sapiens) (UniProt Q6QHF9); test: Activity of APAO in human DU145 cells assessed per ug DNA at 100 uM after 72 hrs in presence of serum amine oxidase inhibitor aminoguanidine (RVb = 662 +/- 48 pmol/h per ug DNA); type: cell-based; conditions: DU-145
# [15] = biological target: T2, S-adenosylmethionine decarboxylase proenzyme (Homo sapiens); test: Activity of S-adenosyl-L-methionine decarboxylase in human DU145 cells assessed per ug DNA at 100 uM after 24 hrs in presence of serum amine oxidase inhibitor aminoguanidine (RVb = 61 +/- 5 pmol/h per ug DNA); type: cell-based; conditions: DU-145
# Sequence of Diamine acetyltransferase 1 (Homo sapiens) (P21673 whole entry): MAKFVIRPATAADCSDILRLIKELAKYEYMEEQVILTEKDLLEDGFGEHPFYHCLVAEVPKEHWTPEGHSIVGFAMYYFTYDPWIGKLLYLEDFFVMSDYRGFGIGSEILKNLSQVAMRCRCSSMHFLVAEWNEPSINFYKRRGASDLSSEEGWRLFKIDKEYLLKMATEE
# Sequence of Spermine oxidase (Homo sapiens) (Q9NWM0 whole entry): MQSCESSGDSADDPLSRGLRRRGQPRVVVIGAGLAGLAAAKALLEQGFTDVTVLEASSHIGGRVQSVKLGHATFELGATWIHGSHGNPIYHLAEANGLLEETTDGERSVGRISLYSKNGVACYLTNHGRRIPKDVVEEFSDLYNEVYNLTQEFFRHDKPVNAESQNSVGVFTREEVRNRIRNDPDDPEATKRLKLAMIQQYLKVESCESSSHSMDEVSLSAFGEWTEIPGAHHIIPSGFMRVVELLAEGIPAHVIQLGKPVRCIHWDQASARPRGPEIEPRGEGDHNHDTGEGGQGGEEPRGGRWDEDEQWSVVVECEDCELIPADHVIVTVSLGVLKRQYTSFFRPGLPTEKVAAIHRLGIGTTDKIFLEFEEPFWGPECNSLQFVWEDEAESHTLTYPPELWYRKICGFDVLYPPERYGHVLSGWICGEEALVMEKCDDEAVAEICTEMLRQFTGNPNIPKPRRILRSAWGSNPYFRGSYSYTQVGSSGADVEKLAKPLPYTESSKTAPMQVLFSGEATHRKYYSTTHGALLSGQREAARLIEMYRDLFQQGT
# Sequence of Peroxisomal N(1)-acetyl-spermine/spermidine oxidase (Homo sapiens) (Q6QHF9 whole entry): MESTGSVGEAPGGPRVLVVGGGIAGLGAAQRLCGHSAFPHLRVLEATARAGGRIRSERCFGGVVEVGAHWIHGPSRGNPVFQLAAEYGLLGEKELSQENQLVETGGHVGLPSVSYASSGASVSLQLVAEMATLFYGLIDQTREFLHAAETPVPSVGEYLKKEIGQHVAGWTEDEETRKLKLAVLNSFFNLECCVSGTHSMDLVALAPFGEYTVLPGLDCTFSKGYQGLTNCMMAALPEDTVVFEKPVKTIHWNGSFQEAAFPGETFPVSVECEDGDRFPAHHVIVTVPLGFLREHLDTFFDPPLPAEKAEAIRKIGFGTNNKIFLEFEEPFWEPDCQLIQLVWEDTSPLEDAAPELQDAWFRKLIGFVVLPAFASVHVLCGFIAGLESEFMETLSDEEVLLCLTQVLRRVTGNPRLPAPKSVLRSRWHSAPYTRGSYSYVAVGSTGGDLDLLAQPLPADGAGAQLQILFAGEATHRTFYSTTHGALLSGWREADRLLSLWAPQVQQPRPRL
Activity (Nucleic Acid),Activity [1] [pmol/h],Activity [2] [pmol/h],Activity [3] [pmol/h],Activity [4] [pmol/h],Activity [5] [pmol/h],Activity [6] [pmol/h],Activity [7] [pmol/h],Activity [8] [pmol/h],Activity [9] [pmol/h],Activity [10] [pmol/h],Activity [11] [pmol/h],Activity [12] [pmol/h],Activity [13] [pmol/h],Activity [14] [pmol/h],Activity [15] [pmol/h],Structure (SMILES),Activity (DU-145)
Active,4.3,3.5,72,61,75,66,545,754,779,67,4.4,695,362,745,64,C[C@H](N)CCNCCCCN,Active
Active,4.7,3.8,67,62,63,61,562,832,770,65,5.5,738,515,737,53,CC(N)CCCNCCCN (stereo not given),Active

# Further lines, the compound ahead of its results:
Structure (SMILES),Activity (Nucleic Acid),Activity [1] [pmol/h],Activity [2] [pmol/h],Activity [3] [pmol/h],Activity [4] [pmol/h],Activity [5] [pmol/h],Activity [6] [pmol/h],Activity [7] [pmol/h],Activity [8] [pmol/h],Activity [9] [pmol/h],Activity [10] [pmol/h],Activity [11] [pmol/h],Activity [12] [pmol/h],Activity [13] [pmol/h],Activity [14] [pmol/h],Activity [15] [pmol/h],Activity (DU-145)
CCNCCCNCCCNCCCNCC,Active,–,–,–,–,–,–,–,–,–,–,–,–,–,–,–,–
CC(CN)CNCCCCN (stereo not given),Active,21.7,9.1,71,59,79,61,562,608,719,56,16.6,655,394,732,67,Active
NCCCCNCCCN,–,–,–,–,–,–,–,–,–,–,–,–,–,–,–,–,Active
CC(CCN)NCCCCN (stereo not given),Active,8.8,5.4,60,59,58,69,528,571,693,62,9.3,474,204,775,53,Active
